Experiments:
rice = assay: Test B flood test rice; format: in vivo, Oryza sativa
In short: (§1)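 Each value is a visual injury score relative to controls, with 10 meaning complete control and 0 no effect. Evaluation took place twelve to sixteen days after the 2-leaf-stage plants were treated and kept in the greenhouse.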

surinam grass = assay: Test B pre/postemergence surinam grass; format: in vivo, Brachiaria decumbens
In short: (§2)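 Test chemicals in a non-phytotoxic solvent mixture with surfactant were sprayed preemergence onto planted seeds and postemergence onto plants 2 to 18 cm tall (1- to 4-leaf stage). After twelve to sixteen days in a greenhouse, injury was visually rated against untreated controls from 0 (no effect) to 10 (complete control).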

bamyardgrass = assay: Test B flood test barnyardgrass; format: in vivo, Echinochloa crus-galli
In short: as §1

giant foxtail = assay: Test B pre/postemergence giant foxtail; format: in vivo, Setaria faberii
In short: as §2

blackgrass = assay: Test B pre/postemergence blackgrass; format: in vivo, Alopecurus myosuroides
In short: as §2

velvetleaf = assay: Test B pre/postemergence velvetleaf; format: in vivo, Abutilon theophrasti
In short: as §2

rape = assay: Test B pre/postemergence rape; format: in vivo, Brassica napus
In short: as §2

morningglory = assay: Test B pre/postemergence morningglory; format: in vivo, Ipomoea hederacea
In short: as §2

sugar beet = assay: Test B pre/postemergence sugar beet; format: in vivo, Beta vulgaris
In short: as §2

purple nutsedge = assay: Test B pre/postemergence purple nutsedge; format: in vivo, Cyperus rotundus
In short: as §2

bedstraw = assay: Test B pre/postemergence bedstraw; format: in vivo, Galium aparine; conditions: for Bedstraw plant response rating: Postemergence; for Plant response rating, Bedstraw: Preemergence
In short: as §2

cocklebur = assay: Test B pre/postemergence cocklebur; format: in vivo, Xanthium strumarium
In short: as §2

duck salad = assay: Test B flood test duck salad; format: in vivo, Heteranthera limosa
In short: as §1

corn = assay: Test B pre/postemergence corn; format: in vivo, Zea mays
In short: as §2

pigweed = assay: Test B pre/postemergence pigweed; format: in vivo, Amaranthus retroflexus
In short: as §2

[1] = Postemergence, Rate 62 g/ha, scale 0 to 10, 0 is no effect, 10 is complete control
[2] = Rate 125 g/ha, Postemergence section (flood test species), scale 0 to 10, 0 no effect, 10 complete control
[3] = Rate 500 g/ha, Postemergence section of Table B, 0 to 10 scale (0 no effect, 10 complete control)
[4] = flood test, listed under Postemergence, Rate 250 g/ha, scale 0 to 10, 0 no effect, 10 complete control
[5] = Postemergence, Rate 250 g/ha, scale 0 to 10, 0 no effect, 10 complete control
[6] = Preemergence, Rate 62 g/ha, scale 0 to 10, 0 is no effect, 10 is complete control
[7] = Preemergence, Rate 125 g/ha, scale 0 to 10 (0 no effect, 10 complete control)
[8] = Preemergence, Rate 250 g/ha, scale of 0 to 10 where 0 is no effect and 10 is complete control
[9] = Preemergence, Rate 500 g/ha, scale 0 (no effect) to 10 (complete control)
[10] = Rate 125 g/ha, Postemergence, scale 0 to 10, 0 no effect, 10 complete control
[11] = Rate 500 g/ha, Postemergence, 0 to 10 scale (0 no effect, 10 complete control)
[12] = Rate 62 g/ha, scale 0 to 10, 0 is no effect, 10 is complete control

Cc1c(Cl)cccc1-n1c(=O)on(C(=O)N(c2ccc(F)cc2)C(C)C)c1=O [Compound 21]
Rice plant response rating (rice; [1]): 0
Rice plant response rating (rice; [2]): 0
Rice plant response rating (rice; [3]): 0
Rice plant response rating (rice; [4]): 0
B. signalgrass plant response rating (surinam grass; [1]): 0
B. signalgrass plant response rating (surinam grass; [5]): 0
Plant response rating, B. signalgrass (surinam grass; [6]): 0
Plant response rating, B. signalgrass (surinam grass; [7]): 0
Plant response rating, B. signalgrass (surinam grass; [8]): 0
B. signalgrass plant response rating (surinam grass; [9]): 0
B. signalgrass plant response rating (surinam grass; [10]): 0
B. signalgrass plant response rating (surinam grass; [11]): 0
Barnyardgrass plant response rating (bamyardgrass; [1]): 0
Barnyardgrass plant response rating (bamyardgrass; [2]): 0
Barnyardgrass plant response rating (bamyardgrass; [3]): 0
Barnyardgrass plant response rating (bamyardgrass; [4]): 0
Giant foxtail plant response rating (giant foxtail; [1]): 0
Giant foxtail plant response rating (giant foxtail; [5]): 0
Plant response rating, Giant foxtail (giant foxtail; [6]): 8
Plant response rating, Giant foxtail (giant foxtail; [7]): 8
Plant response rating, Giant foxtail (giant foxtail; [8]): 8
Giant foxtail plant response rating (giant foxtail; [9]): 9
Giant foxtail plant response rating (giant foxtail; [10]): 0
Giant foxtail plant response rating (giant foxtail; [11]): 2
Blackgrass plant response rating (blackgrass; [1]): 0
Blackgrass plant response rating (blackgrass; [5]): 0
Plant response rating, Blackgrass (blackgrass; [6]): 0
Plant response rating, Blackgrass (blackgrass; [7]): 0
Plant response rating, Blackgrass (blackgrass; [8]): 0
Blackgrass plant response rating (blackgrass; [9]): 0
Blackgrass plant response rating (blackgrass; [10]): 0
Blackgrass plant response rating (blackgrass; [11]): 0
Velvetleaf plant response rating (velvetleaf; [1]): 0
Velvetleaf plant response rating (velvetleaf; [5]): 0
Plant response rating, Velvetleaf (velvetleaf; [6]): 0
Plant response rating, Velvetleaf (velvetleaf; [7]): 0
Plant response rating, Velvetleaf (velvetleaf; [8]): 0
Velvetleaf plant response rating (velvetleaf; [9]): 0
Velvetleaf plant response rating (velvetleaf; [10]): 0
Rape plant response rating (rape; [1]): 0
Rape plant response rating (rape; [5]): 0
Plant response rating, Rape (rape; [6]): 0
Plant response rating, Rape (rape; [7]): 0
Plant response rating, Rape (rape; [8]): 0
Rape plant response rating (rape; [9]): 0
Rape plant response rating (rape; [10]): 0
Rape plant response rating (rape; [11]): 0
Morningglory plant response rating (morningglory; [1]): 2
Morningglory plant response rating (morningglory; [5]): 2
Plant response rating, Morningglory (morningglory; [6]): 0
Plant response rating, Morningglory (morningglory; [7]): 0
Plant response rating, Morningglory (morningglory; [8]): 2
Morningglory plant response rating (morningglory; [9]): 2
Morningglory plant response rating (morningglory; [10]): 2
Morningglory plant response rating (morningglory; [11]): 8
Sugarbeets plant response rating (sugar beet; [1]): 0
Sugarbeets plant response rating (sugar beet; [5]): 0
Plant response rating, Sugarbeets (sugar beet; [6]): 0
Plant response rating, Sugarbeets (sugar beet; [7]): 0
Plant response rating, Sugarbeets (sugar beet; [8]): 3
Sugarbeets plant response rating (sugar beet; [9]): 8
Sugarbeets plant response rating (sugar beet; [10]): 0
Nutsedge plant response rating (purple nutsedge; [1]): 0
Nutsedge plant response rating (purple nutsedge; [5]): 0
Plant response rating, Nutsedge (purple nutsedge; [6]): 0
Plant response rating, Nutsedge (purple nutsedge; [7]): 0
Plant response rating, Nutsedge (purple nutsedge; [8]): 0
Nutsedge plant response rating (purple nutsedge; [9]): 0
Nutsedge plant response rating (purple nutsedge; [10]): 0
Nutsedge plant response rating (purple nutsedge; [11]): 0
Bedstraw plant response rating (bedstraw; [12]): 0
Bedstraw plant response rating (bedstraw; Rate 250 g/ha, scale 0 to 10, 0 no effect, 10 complete control): 0
Plant response rating, Bedstraw (bedstraw; [12]): 0
Plant response rating, Bedstraw (bedstraw; Rate 125 g/ha, scale 0 to 10 (0 no effect, 10 complete control)): 0
Plant response rating, Bedstraw (bedstraw; Rate 250 g/ha, scale of 0 to 10 where 0 is no effect and 10 is complete control): 0
Bedstraw plant response rating (bedstraw; Rate 125 g/ha, scale 0 to 10, 0 no effect, 10 complete control): 0
Bedstraw plant response rating (bedstraw; Rate 500 g/ha, 0 to 10 scale (0 no effect, 10 complete control)): 6
Cocklebur plant response rating (cocklebur; [1]): 0
Cocklebur plant response rating (cocklebur; [5]): 5
Plant response rating, Cocklebur (cocklebur; [6]): 0
Plant response rating, Cocklebur (cocklebur; [7]): 0
Plant response rating, Cocklebur (cocklebur; [8]): 0
Cocklebur plant response rating (cocklebur; [9]): 0
Cocklebur plant response rating (cocklebur; [10]): 0
Cocklebur plant response rating (cocklebur; [11]): 7
Ducksalad plant response rating (duck salad; [1]): 0
Ducksalad plant response rating (duck salad; [2]): 0
Ducksalad plant response rating (duck salad; [3]): 0
Ducksalad plant response rating (duck salad; [4]): 0
Corn plant response rating (corn; [1]): 0
Corn plant response rating (corn; [5]): 0
Plant response rating, Corn (corn; [6]): 0
Plant response rating, Corn (corn; [7]): 0
Plant response rating, Corn (corn; [8]): 0
Corn plant response rating (corn; [9]): 0
Corn plant response rating (corn; [10]): 0
Corn plant response rating (corn; [11]): 3
Redroot pigweed plant response rating (pigweed; [1]): 0
Redroot pigweed plant response rating (pigweed; [5]): 0
Plant response rating, Redroot pigweed (pigweed; [6]): 6
Plant response rating, Redroot pigweed (pigweed; [7]): 6
Plant response rating, Redroot pigweed (pigweed; [8]): 6
Redroot pigweed plant response rating (pigweed; [9]): 8
Redroot pigweed plant response rating (pigweed; [10]): 0
Redroot pigweed plant response rating (pigweed; [11]): 0

Reference: patent US6737383B1, “Herbicidal oxadiazolidines” (priority 1999, dated 2004)
